Patent EP0801071A1, “LEWIS X DERIVATIVE AND PROCESS FOR PRODUCING THE SAME” (SUMITOMO PHARMACEUTICALS COMPANY, LIMITED, priority 1994, dated 1996)

Legend:
[1] = system: adhesion of HUVEC to neutrophils; test: Inhibition of adhesion of neutrophils (treated with anti-CD18 antibody) to IL-1β-stimulated HUVEC (Experiment 1); assay type: cell-based, human; conditions: at a concentration of 0.05-0.5mM; wells without compound = 100%
Protocol: To each well of a 96 well plate was added a PBS solution containing 0.1% gelatine at 50 µl/well, and after 15 minutes at room temperature, the solution was removed with a Pasteur pipette. On the coated 96 well plate, human umbilical vein endothelial cells (HUVEC, 5th generation) were cultured until confluent. The culture medium was removed with a Pasteur pipette and the MEM medium containing 45 U/ml of IL-1β was added at 100 µl/well, and incubated for 4 hours. On the same plate, wells containing the MEM medium without IL-1β were prepared and similarly incubated for 4 hours.
Blood was collected from a healthy human using heparin as an anticoagulant. In a 50 ml-tube was placed 15 ml of neutrophil·monocyte fraction, and 25 ml of whole blood was gently layered. The brake function was released and centrifuged at 1700 rpm for 30 minutes at room temperature, and the neutrophil layer was collected and transferred into a 50 ml tube containing 30 ml of HBSS solution. The brake function was recovered and centrifuged at 3000 rpm for 3 minutes at room temperature, the supernatant was removed, and 30 ml of HBSS was added for resuspension. This procedure was repeated twice. The neutrophils were counted using hemocytometer, adjusted to 5×10^6 cells/ml with the HBSS solution, charged in a 15 ml tube, mixed with anti-CD18 antibody at final concentration of 10 µg/ml, and incubated for 1 hour with occasional gentle swirling.
MEM medium was removed from the HUVEC plate with a Pasteur pipette, a compound of the present invention diluted with MEM medium at 50 µl/well was added, and incubated for 20 minutes.
The neutrophils treated with anti-CD18 antibody were added to the HUVEC plate at 25 µl/well, and incubated for 5 minutes. […]
The OD490 of each well was determined, and the OD490 value of wells containing MEM medium without IL-1β was subtracted from that of each well. The value found in wells containing none of the compounds of the present invention was set to be 100% and the […] of the compound of the invention was assessed as shown in Figure 1. […]

rsE-selectin = molecular target: T1, rsE-selectin (Homo sapiens, UniProt P16581); test: Inhibition of adhesion of HL-60 cells to plate-coated rsE-selectin (Experiment 2); assay type: cell-based; conditions: 50% inhibition concentration of adhesion of rsE-selectin to HL-60, from inhibition curves; medium-only well = 100%
T1 sequence (P16581 22-556 limits assumed): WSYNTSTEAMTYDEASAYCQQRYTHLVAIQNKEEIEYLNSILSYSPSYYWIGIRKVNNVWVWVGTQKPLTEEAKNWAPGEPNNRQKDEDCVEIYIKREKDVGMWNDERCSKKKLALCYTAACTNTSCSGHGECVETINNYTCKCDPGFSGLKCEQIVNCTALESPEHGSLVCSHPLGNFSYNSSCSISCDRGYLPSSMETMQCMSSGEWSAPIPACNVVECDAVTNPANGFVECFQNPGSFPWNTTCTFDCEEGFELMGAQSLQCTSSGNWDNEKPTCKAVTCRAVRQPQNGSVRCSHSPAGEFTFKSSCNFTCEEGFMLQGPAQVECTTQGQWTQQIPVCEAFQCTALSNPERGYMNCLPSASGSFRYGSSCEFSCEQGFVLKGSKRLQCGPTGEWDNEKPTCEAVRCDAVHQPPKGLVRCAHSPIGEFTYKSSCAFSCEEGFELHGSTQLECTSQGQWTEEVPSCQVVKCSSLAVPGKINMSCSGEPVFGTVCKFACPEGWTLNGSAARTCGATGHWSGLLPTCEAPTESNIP
Protocol: The DPBS solution containing rsE-selectin (3 µg/ml) was added to a 96 well plate at 50 µl/well, while wells filled with DPBS without rsE-selectin (non-specific adhesion control) were prepared on the same plate, and the plate was kept at room temperature for 3 hours. Then wells were washed 3 times with a DPBS/BSA solution at 200 µl/well, and DPBS/BSA solution was added at 200 µl/well, and the plate was kept at room temperature for 1 hour. After removing DPBS/BSA solution, a medium containing NWB or NWB plus a compound of the invention was added at 40 µl/well.
Frozen HL-60 cells were thawed promptly at 37°C, and washed with NWB cooled to 4°C 3 times by centrifugation at 1500rpm × 5 min. The cells were adjusted with NWB to 1×10^7 cells/ml, added to the plate at 20 µl/well, and the plate was kept at room temperature for 15 min.
The plate was set on a plate washer to remove nonadhesive HL-60 cells. The plate washer was set at slow mode, cycle 3 (washing 3 times), soak 0 sec., 12 rows (along vertical direction), and volume of NWB for 1 washing 200 µl/well at room temperature.
A citrate solution containing 0.1% NP-40 at room temperature was added at 50 µl/well, and the plate was kept at room temperature for 5 minutes. The substrate solution (4 mg OPDA, 4µl 30% H2O2/4 ml citrate) was added at 50 µl/well, protected from light with aluminum foil, allowed to develop color for 5 to 20 minutes, and the reaction was terminated by adding 4N-H2SO4 at 50µl/well. The substrate solution was used within 30 minutes after preparation.
The OD490 of each well was determined, and the OD490 value of the well for nonspecific adhesion was subtracted from the value of each well. The value found in a well containing only the medium was used as a control (100%) and the amount of adhesion in wells containing Compounds (15), (31), (33)-(40) or (41) of the invention was calculated by percent in terms of the values of the control. By drawing inhibition curves, 50% inhibition concentration (IC50) was determined.
The materials for the experiment were obtained from the following sources. rsE-selectin: producible by the method described in J. C. Poulson, J. Am. Chem. Soc., 117: 66-79 (1995). The sample of rsE-selectin used in the experiments was kindly supplied by the author. HL-60 : ATCC Corp. DPBS (Dulbecco Phosphate Buffered Saline) : GIBCO Corp. BSA (Bovine Serum Albumin) : Sigma Corp. HBSS (Hanks Balanced Salt Solution) : GIBCO Corp. OPDA (Ortho-phenylenediamine) : Sigma Corp. RPMI 1640 medium : GIBCO Corp. Bovine Fetal Serum : GIBCO Corp. Plate : Immulon. 2. (flat bottomed) : Dynatech Laboratories. Plate washer; Microplate Washer : Molecular Devices Corp.
A compound of the present invention was adjusted to 100mM with DPBS, and pH was adjusted to 7.1-7.4.
HL-60 was cultured in RPMI 1640 medium supplemented with 10% Bovine Fetal Serum. Using a cell freezing solution consisting of 80% RPMI 1640 medium + 10% Bovine Fetal Serum + 10% DMSO, HL-60 was frozen at 1.5 × 10^7 cells per a tube according to a conventional method, and stocked at -80°C. This was used under sterile condition.
Composition of DPBS/BSA was DPBS + 1% BSA.
Composition of NWB was HBSS + 10mM-HEPES + 0.2%glucose + 1%BSA+ 1mM-CaCl2. These two solutions are prepared under sterile condition.
The citrate solution was prepared by dissolving 2.33 g of citric acid and 9.20 g of Na2HPO4·12H2O in 500 ml of desalted water.

| SMILES | inhibited the adhesion of HUVEC to neutrophils [1] [%] | IC50 (rsE-selectin) [µM] |
| --- | --- | --- |
| COc1cc(CO[C@@H]2O[C@H](CO)[C@@H](O[C@@H]3O[C@H](CO)[C@H](O)[C@H](O[C@]4(C(=O)O)C[C@H](O)[C@@H](NC(C)=O)[C@H]([C@H](O)[C@H](O)CO)O4)[C@H]3O)[C@H](O[C@@H]3O[C@@H](C)[C@@H](O)[C@@H](O)[C@@H]3O)[C@H]2NC(=O)c2ccc3ccccc3c2)cc(OC)c1OC [Compound 15, 3,4,5-trimethoxybenzyl (5-acetamido-3,5-dideoxy-α-D-glycero-D-galacto-2-nonulopyra nosylonic acid)-(2→3)-O-(β-D-galacto-pyranosyl)-(1→4)-O-[α-L-fucopyranosyl-(1→3)-O]-(2-deoxy-2-naphthamido-β-D-glucopyranoside)] | ≥ 50 | 110 |
| CCOCCOCCO[C@@H]1O[C@H](CO)[C@@H](O[C@@H]2O[C@H](CO)[C@H](O)[C@H](O[C@]3(C(=O)O)C[C@H](O)[C@@H](NC(C)=O)[C@H]([C@H](O)[C@H](O)CO)O3)[C@H]2O)[C@H](O[C@@H]2O[C@@H](C)[C@@H](O)[C@@H](O)[C@@H]2O)[C@H]1NC(=O)c1ccc2ccccc2c1 [Compound 31, 2-(2-Ethoxyethoxy)ethyl (5-acetamido-3,5-dideoxy-α-D-glycero-D-galacto-2-nonulopyranosylonic acid)-(2→3)-O-(β-D-galactopyranosyl)-(1→4)-O-[α-L-fucopyranosyl-(1→3)-O]-(2-deoxy-2-naphthamido-β-D-glucopyranoside)] | ≥ 50 | 110 |
| CC(=O)N[C@H]1[C@H]([C@H](O)[C@H](O)CO)O[C@@](O[C@H]2[C@@H](O)[C@@H](CO)O[C@@H](O[C@H]3[C@H](O[C@@H]4O[C@@H](C)[C@@H](O)[C@@H](O)[C@@H]4O)[C@@H](NC(=O)c4ccc5ccccc5c4)[C@H](OCCCCCCCCCO)O[C@@H]3CO)[C@@H]2O)(C(=O)O)C[C@@H]1O [Compound 35, 9-Hydroxynonyl (5-acetamido-3,5-dideoxy-α-D-glycero-D-galacto-2-nonulopyranosylonic acid)-(2→3)-O-(β-D-galactopyranosyl)-(1→4)-O-[α-L-fucopyranosyl-(1→3)-O ]-(2-deoxy-2-naphthamido-β-D-glucopyranoside)] | ≥ 50 | 50 |
